Source: ChEMBL document CHEMBL4308907, “Pyrrolidinone-bearing methylated and halogenated benzenesulfonamides as inhibitors of carbonic anhydrases” (Bioorg Med Chem, 2019)

Columns and labels:
Carbonic anhydrase 12 = Carbonic anhydrase 12 (Homo sapiens, UniProt O43570); experiment: Binding affinity to recombinant human CA12 by DSF-based fluorescence thermal shift assay
Carbonic anhydrase 7 = Carbonic anhydrase 7 (Homo sapiens, UniProt P43166); experiment: Binding affinity to recombinant human CA7 by DSF-based fluorescence thermal shift assay
Carbonic anhydrase 7, sequence (P43166 whole entry): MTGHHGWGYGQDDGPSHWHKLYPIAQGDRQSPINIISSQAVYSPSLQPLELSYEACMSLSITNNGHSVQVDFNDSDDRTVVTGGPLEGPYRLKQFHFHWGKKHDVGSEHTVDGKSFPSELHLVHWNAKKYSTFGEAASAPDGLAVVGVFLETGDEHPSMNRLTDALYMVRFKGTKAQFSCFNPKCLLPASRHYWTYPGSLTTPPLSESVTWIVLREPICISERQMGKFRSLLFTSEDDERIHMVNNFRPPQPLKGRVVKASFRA

Carbonic anhydrase 2 [1] = target: T1, Carbonic anhydrase 2 (Homo sapiens, UniProt P00918); experiment: Binding affinity to recombinant human CA2 by DSF-based fluorescence thermal shift assay
Carbonic anhydrase 6 = Carbonic anhydrase 6 (Homo sapiens, UniProt P23280); experiment: Binding affinity to recombinant human CA6 by DSF-based fluorescence thermal shift assay
Carbonic anhydrase 6, sequence (P23280 whole entry): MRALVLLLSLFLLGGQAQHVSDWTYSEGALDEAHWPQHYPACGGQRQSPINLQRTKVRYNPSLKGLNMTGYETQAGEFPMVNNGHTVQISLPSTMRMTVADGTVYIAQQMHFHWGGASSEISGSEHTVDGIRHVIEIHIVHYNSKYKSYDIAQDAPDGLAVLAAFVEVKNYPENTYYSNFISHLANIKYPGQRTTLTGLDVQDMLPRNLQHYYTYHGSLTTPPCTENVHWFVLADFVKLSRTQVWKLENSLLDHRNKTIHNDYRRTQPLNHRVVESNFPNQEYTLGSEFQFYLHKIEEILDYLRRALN

Carbonic anhydrase 9 = Carbonic anhydrase 9 (Homo sapiens, UniProt Q16790); experiment: Binding affinity to recombinant human CA9 by DSF-based fluorescence thermal shift assay
[2] = target: Carbonic anhydrase 5B, mitochondrial (Homo sapiens, UniProt Q9Y2D0); experiment: Binding affinity to recombinant full length N-terminal His6x-tagged human CA5B expressed in Escherichia coli Rosetta 2 (DE3) by DSF-based fluorescence thermal shift assay
Carbonic anhydrase 5B, mitochondrial, sequence (Q9Y2D0 whole entry): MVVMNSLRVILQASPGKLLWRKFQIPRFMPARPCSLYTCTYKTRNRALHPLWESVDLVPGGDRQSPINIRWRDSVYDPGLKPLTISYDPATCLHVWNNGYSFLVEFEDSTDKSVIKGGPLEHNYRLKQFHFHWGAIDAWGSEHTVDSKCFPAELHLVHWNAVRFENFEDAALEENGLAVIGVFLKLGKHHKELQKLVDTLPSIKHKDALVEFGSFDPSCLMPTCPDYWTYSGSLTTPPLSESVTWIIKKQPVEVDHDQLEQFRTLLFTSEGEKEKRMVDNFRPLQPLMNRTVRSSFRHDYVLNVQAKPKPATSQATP

Carbonic anhydrase 1 = Carbonic anhydrase 1 (Homo sapiens, UniProt P00915); experiment: Binding affinity to recombinant human CA1 by DSF-based fluorescence thermal shift assay
Carbonic anhydrase 1, sequence (P00915 whole entry): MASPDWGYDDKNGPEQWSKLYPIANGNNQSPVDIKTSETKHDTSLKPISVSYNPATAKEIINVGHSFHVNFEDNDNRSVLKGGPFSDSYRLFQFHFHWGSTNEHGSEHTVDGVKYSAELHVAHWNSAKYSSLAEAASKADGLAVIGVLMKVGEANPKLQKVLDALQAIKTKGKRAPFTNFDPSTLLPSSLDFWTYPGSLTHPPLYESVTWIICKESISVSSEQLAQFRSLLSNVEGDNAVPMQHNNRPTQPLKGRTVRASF

Carbonic anhydrase 4 = Carbonic anhydrase 4 (Homo sapiens, UniProt P22748); experiment: Binding affinity to recombinant human CA4 by DSF-based fluorescence thermal shift assay
Carbonic anhydrase 4, sequence (P22748 whole entry, the tested form may be a part): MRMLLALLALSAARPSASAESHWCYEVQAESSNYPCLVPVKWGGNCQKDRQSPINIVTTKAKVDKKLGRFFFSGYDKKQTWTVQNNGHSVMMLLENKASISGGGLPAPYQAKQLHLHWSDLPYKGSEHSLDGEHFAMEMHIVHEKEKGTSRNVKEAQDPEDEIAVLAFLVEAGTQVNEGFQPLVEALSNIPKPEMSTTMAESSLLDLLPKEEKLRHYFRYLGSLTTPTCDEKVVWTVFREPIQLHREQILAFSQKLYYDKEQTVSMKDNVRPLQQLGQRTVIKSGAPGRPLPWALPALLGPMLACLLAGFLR

Carbonic anhydrase 3 = Carbonic anhydrase 3 (Homo sapiens, UniProt P07451); experiment: Binding affinity to recombinant N-terminal His6x-tagged human CA3 (4 to 260 residues) expressed in Escherichia coli BL21(DE3) by DSF-based fluorescence thermal shift assay
Carbonic anhydrase 3, sequence (P07451 whole entry, the tested form may be a part): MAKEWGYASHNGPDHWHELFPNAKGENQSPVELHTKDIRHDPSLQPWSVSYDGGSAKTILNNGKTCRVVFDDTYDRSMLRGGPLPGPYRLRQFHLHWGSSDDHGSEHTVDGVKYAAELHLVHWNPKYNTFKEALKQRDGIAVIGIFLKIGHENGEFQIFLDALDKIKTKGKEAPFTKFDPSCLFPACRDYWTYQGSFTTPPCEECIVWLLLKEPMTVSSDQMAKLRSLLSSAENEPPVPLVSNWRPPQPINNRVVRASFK

Carbonic anhydrase 13 = Carbonic anhydrase 13 (Homo sapiens, UniProt Q8N1Q1); experiment: Binding affinity to recombinant human CA13 by DSF-based fluorescence thermal shift assay
Carbonic anhydrase 13, sequence (Q8N1Q1 whole entry): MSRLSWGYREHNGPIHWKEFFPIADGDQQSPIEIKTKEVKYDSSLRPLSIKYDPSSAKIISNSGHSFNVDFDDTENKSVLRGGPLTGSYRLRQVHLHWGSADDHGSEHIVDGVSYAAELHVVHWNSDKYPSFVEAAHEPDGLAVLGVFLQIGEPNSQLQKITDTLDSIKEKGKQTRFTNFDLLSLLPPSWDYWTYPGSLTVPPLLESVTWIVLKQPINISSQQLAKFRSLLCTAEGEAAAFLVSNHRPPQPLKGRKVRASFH

[3] = target: Carbonic anhydrase 5A, mitochondrial (Homo sapiens, UniProt P35218); experiment: Binding affinity to recombinant full length C-terminal His6x-tagged human CA5A expressed in Escherichia coli BL21(DE3) by DSF-based fluorescence thermal shift assay
Carbonic anhydrase 5A, mitochondrial, sequence (P35218 whole entry, the tested form may be a part): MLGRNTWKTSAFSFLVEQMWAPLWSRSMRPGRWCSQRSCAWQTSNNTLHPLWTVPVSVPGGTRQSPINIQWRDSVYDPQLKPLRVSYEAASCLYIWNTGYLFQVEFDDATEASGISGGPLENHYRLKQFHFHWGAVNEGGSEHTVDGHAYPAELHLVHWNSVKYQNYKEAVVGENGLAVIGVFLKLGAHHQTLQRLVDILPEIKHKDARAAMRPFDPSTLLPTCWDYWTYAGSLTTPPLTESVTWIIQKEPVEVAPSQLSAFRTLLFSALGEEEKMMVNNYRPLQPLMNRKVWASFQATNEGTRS

Carbonic anhydrase 14 = Carbonic anhydrase 14 (Homo sapiens, UniProt Q9ULX7); experiment: Binding affinity to recombinant N-terminal His6x-tagged human CA14 (20 to 280 residues) catalytic domain expressed in Escherichia coli Rosetta 2 (DE3) by DSF-based fluorescence thermal shift assay
Carbonic anhydrase 14, sequence (Q9ULX7 whole entry, the tested form may be a part): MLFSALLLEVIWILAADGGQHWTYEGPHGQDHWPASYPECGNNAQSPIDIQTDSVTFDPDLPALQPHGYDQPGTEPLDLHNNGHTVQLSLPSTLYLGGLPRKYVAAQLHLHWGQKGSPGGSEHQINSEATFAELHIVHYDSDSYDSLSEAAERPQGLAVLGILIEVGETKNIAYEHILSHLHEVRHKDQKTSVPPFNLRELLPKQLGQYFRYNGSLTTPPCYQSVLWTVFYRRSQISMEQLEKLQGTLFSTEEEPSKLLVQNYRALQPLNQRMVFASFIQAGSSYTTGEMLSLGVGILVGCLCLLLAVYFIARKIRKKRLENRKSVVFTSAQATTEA

Carbonic anhydrase 2 [4] = target: T1, Carbonic anhydrase 2; experiment: Binding affinity to recombinant human CA2 in pH 7 sodium phosphate buffer at 37 degC by isothermal titration calorimetry

Carbonic anhydrase 12, sequence (O43570 whole entry): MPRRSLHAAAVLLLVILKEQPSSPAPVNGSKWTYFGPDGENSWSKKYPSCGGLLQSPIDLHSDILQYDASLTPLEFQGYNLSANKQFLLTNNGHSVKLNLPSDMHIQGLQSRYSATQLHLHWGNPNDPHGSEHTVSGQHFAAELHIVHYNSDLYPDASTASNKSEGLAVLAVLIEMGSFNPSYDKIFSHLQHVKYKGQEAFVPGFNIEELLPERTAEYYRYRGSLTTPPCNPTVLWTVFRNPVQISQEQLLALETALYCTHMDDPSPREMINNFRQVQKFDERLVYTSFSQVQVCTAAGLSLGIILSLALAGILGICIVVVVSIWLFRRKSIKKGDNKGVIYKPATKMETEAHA

Structure (SMILES)	Kd (Carbonic anhydrase 12) [nM]	Kd (Carbonic anhydrase 7) [nM]	Kd (Carbonic anhydrase 2 [1]) [nM]	Kd (Carbonic anhydrase 6) [nM]	Kd (Carbonic anhydrase 9) [nM]	Kd [2] [nM]	Kd (Carbonic anhydrase 1) [nM]	Kd (Carbonic anhydrase 4) [nM]	Kd (Carbonic anhydrase 3) [nM]	Kd (Carbonic anhydrase 13) [nM]	Kd [3] [nM]	Kd (Carbonic anhydrase 14) [nM]	Kd (Carbonic anhydrase 2 [4]) [nM]
Cc1cc(C)cc(N2CC(C(=O)O)CC2=O)c1 (stereo not drawn)	≥ 200000	≥ 200000	≥ 200000	≥ 200000	≥ 200000	≥ 200000	≥ 200000	≥ 200000	≥ 200000	≥ 200000	–	–	–
Cc1cc(S(N)(=O)=O)c(C)cc1N1CC(C(=O)N/N=C/c2ccccc2)CC1=O (stereo not drawn)	9300	1900	1300	9600	1400	28	7100	7600	≥ 200000	420	–	470	–
NS(=O)(=O)c1ccc(N2CC(C(=O)O)CC2=O)cc1 (stereo not drawn)	2000	460	500	6700	330	4700	4200	2500	≥ 200000	–	–	720	–
Cc1cc(N2CC(C(=O)O)CC2=O)c(Cl)c(C)c1S(N)(=O)=O (stereo not drawn)	1300	56	220	6300	290	530	4300	360	110000	220	–	–	697
Cc1cc(N2CC(C(=O)N/N=C/c3ccccc3)CC2=O)c(Cl)c(C)c1S(N)(=O)=O (stereo not drawn)	770	33	56	1400	100	20	560	770	≥ 200000	33	–	12	–
NS(=O)(=O)c1ccc(N2CC(C(=O)N/N=C/c3ccccc3)CC2=O)cc1 (stereo not drawn)	2500	500	170	2000	59	1300	630	1300	≥ 200000	830	1700	200	–
Cc1cc(N2CC(C(=O)N/N=C/c3ccc([N+](=O)[O-])cc3)CC2=O)c(Cl)c(C)c1S(N)(=O)=O (stereo not drawn)	1400	43	50	810	100	18	330	480	≥ 200000	56	–	–	–
COC(=O)C1CC(=O)N(c2ccc(S(N)(=O)=O)cc2)C1 (stereo not drawn)	4000	130	150	94	170	3300	1000	1500	≥ 200000	1100	–	96	–
Cc1cc(N2CC(C(=O)N/N=C/c3ccc(Cl)cc3)CC2=O)c(Cl)c(C)c1S(N)(=O)=O (stereo not drawn)	2000	35	100	650	91	3.8	670	510	≥ 200000	200	–	–	–

More lines, now with the values ahead:

Kd (Carbonic anhydrase 12) [nM]	Kd (Carbonic anhydrase 7) [nM]	Kd (Carbonic anhydrase 2 [1]) [nM]	Kd (Carbonic anhydrase 6) [nM]	Kd (Carbonic anhydrase 9) [nM]	Kd [2] [nM]	Kd (Carbonic anhydrase 1) [nM]	Kd (Carbonic anhydrase 4) [nM]	Kd (Carbonic anhydrase 3) [nM]	Kd (Carbonic anhydrase 13) [nM]	Kd [3] [nM]	Kd (Carbonic anhydrase 14) [nM]	Kd (Carbonic anhydrase 2 [4]) [nM]	Structure (SMILES)
≥ 200000	≥ 200000	≥ 200000	≥ 200000	≥ 200000	≥ 200000	≥ 200000	≥ 200000	≥ 200000	≥ 200000	–	–	–	Cc1cc(N2CC(C(=O)O)CC2=O)cc(C)c1S(=O)(=O)Cl (stereo not drawn)
7700	20000	12000	25000	5000	3300	20000	5900	≥ 200000	8300	8300	3200	–	Cc1cc(N2CC(C(=O)O)CC2=O)cc(C)c1S(N)(=O)=O (stereo not drawn)
50000	50000	11000	50000	13000	1400	17000	9100	≥ 200000	100000	20000	5000	–	Cc1cc(N2CC(C(=O)NN)CC2=O)cc(C)c1S(N)(=O)=O (stereo not drawn)
21000	4400	8100	24000	9000	660	58000	14000	≥ 200000	2800	–	4000	–	Cc1cc(S(N)(=O)=O)c(C)cc1N1CC(C(=O)NN)CC1=O (stereo not drawn)
–	100	140	4800	330	140	2500	500	≥ 200000	200	–	40	–	Cc1cc(N2CC(C(=O)NN)CC2=O)c(Cl)c(C)c1S(N)(=O)=O (stereo not drawn)
12000	31	1600	29000	1600	180	11000	10000	≥ 200000	580	–	840	–	COC(=O)C1CC(=O)N(c2cc(C)c(S(N)(=O)=O)cc2C)C1 (stereo not drawn)
29000	30000	2200	25000	2000	710	2200	5000	≥ 200000	22000	2000	2000	–	Cc1cc(N2CC(C(=O)N/N=C/c3ccccc3)CC2=O)cc(C)c1S(N)(=O)=O (stereo not drawn)
22000	33000	1700	10000	2000	400	1000	4700	≥ 200000	17000	–	–	–	Cc1cc(N2CC(C(=O)N/N=C/c3ccc([N+](=O)[O-])cc3)CC2=O)cc(C)c1S(N)(=O)=O (stereo not drawn)
8300	3300	910	28000	2000	500	1500	6000	≥ 200000	3700	–	–	318	Cc1cc(C)n(C(=O)C2CC(=O)N(c3cc(C)c(S(N)(=O)=O)c(C)c3)C2)n1 (stereo not drawn)
8100	2700	6400	22000	2600	1100	38000	19000	160000	670	–	3900	–	Cc1cc(S(N)(=O)=O)c(C)cc1N1CC(C(=O)O)CC1=O (stereo not drawn)
≥ 200000	≥ 200000	2000	14000	3300	670	1700	18000	≥ 200000	≥ 200000	–	–	–	Cc1cc(N2CC(C(=O)N/N=C/c3ccc(Cl)cc3)CC2=O)cc(C)c1S(N)(=O)=O (stereo not drawn)
4000	670	500	10000	630	10000	3300	2200	≥ 200000	7700	50000	910	–	NNC(=O)C1CC(=O)N(c2ccc(S(N)(=O)=O)cc2)C1 (stereo not drawn)
